Data reported in patent US20040192774A1, “Method for improving the well-being of poultry by in-ovo injection of carnitine” (priority 2001, published 2004).

Columns and labels:
[1] = system: Cobb-500 strain of broiler chicken; test: Floor pen studies: broiler performance after day 18 in-ovo carnitine injection (or carnitine-supplemented feed); assay type: in vivo; conditions: for FCR 0-49 (feed conversion ratio): 0 to 49 days post-hatch; for FCR 0-70 (feed conversion ratio): 0 to 70 days post-hatch; for FCR 49-70 (feed conversion ratio): 49 to 70 days post-hatch
Procedure: (§1) Approximately 4000 embryonated, freshly laid eggs of Cobb-500 strain of broiler chicken (obtained from Cobb Vantress of Siloam Springs, Ark.) were pre-selected as to uniformity of weight and originated from breeder hens at approximately 35-45 weeks of the production cycle. The eggs were kept in a climatised incubation chamber at 37° C. up to day 18 post-laying. Eggs were then injected with either 100 μl sterile physiological saline or 150 μg carnitine comprised in 100 μl sterile physiological saline on day 18 of incubation. Incubation was then carried on until hatch. Carnitine was commercially available L-Carnitine (trade name: Carnifeed, Lonza Inc., 100% L-Carnitine). The eggs were injected with the automatic inovoject-system of Embrex, Inc. (maximum capacity: 50,000 eggs per hour). The system punches a tiny hole into the egg shell and then lowers a needle through the hole which delivers the therapeutic product to the embryo. Needles are automatically sanitized after each injection and provide for 100% inoculation.
(§2) To assess the effect of the carnitine injection carried out according to Example 1, birds were selected at random from the birds originating from the Example 1 and raised up to 70 days. The birds were either placed in a commercial production environment (12 floor pens/trt; 50 birds/pen) or in metabolic chambers with normal feed but subnormal, controlled oxygen supply. The latter is an accepted testing model for trigger the ascites condition in predispositioned birds. Approximately 2400 chicks were allocated to floor pen groups as described below. Three hundred birds were selected at random and incubated in the metabolic chambers. Standard feeds were applied (similar to diets fed to commercial broiler chickens); and nutrient specifications are shown below. Feeds were mixed according to accepted mixing procedures such that treatment diets only differed in presence or absence of carnitine.
Data were analyzed using the General Linear Model procedure of SAS (SAS, 1985). When a significant F statistic was noted by ANOVA, treatment means were compared using least square analysis variance.
Data are only given where probability levels were p≦0.10. In general, carnitine effects, though not always being statistically significant at p<0.05, were consistent across trials.
Number of days post-hatch are indicated, e.g., BW21: Hatched chicks were grown for 21 days prior to measurement.
Mortality (M) is given as main effect mean in %. Number of days post-hatch are indicated, e.g., M21-49: percentage of death birds in the period of 21 to 49 days post-hatch.
Main effect means for feed conversion ratio (FCR, in grams of feed per gram of gain) is given. Number of days post-hatch are indicated, e.g., FCR 0-49: FCR in the period 0 to 49 days post-hatch that chicks were grown. For further control, the effect of in-ovo injection was compared to that of feeding the same diet, except that this diet was supplemented with carnitine at 200 ppm. Feed conversion was improved by carnitine treatment, either fed or injected. The results from both methods of carnitine administration were consistent.

[2] = system: Cobb-500 strain of broiler chicken; test: Metabolic chamber studies: subnormal oxygen supply, ascites model; assay type: in vivo; conditions: for HCT (hematocrit, packed cell volume) / AS (ascites score): day 14, 17% oxygen
From the text: In the context of the present invention, the ascites score is understood as an empirical score from 0 to 3 indicating no to severe myocardial degeneration, based on the histopathological changes. Pathological changes in cardiac traits such as right ventricle weight and ascites heart ratio, defined as the ratio of right ventricle weight to total ventricle weight, are also taken into account.
A score of zero indicated minimal fat deposition and myofiber size variation, whereas a score of three indicated marked myocardial degeneration, highly abnormal cardiac traits and arteritis. A score of two was intermediate to the two extremes.
as §1, §2
Chicks were reared in air-tight chambers at subnormal oxygen supply simulating high altitude conditions. Feed and drinking water were provided for ad-libitum consumption. Chamber temperature was maintained at 30° C. the first 5 days of age and at 27.8° C. thereafter. Chambers were checked twice daily for bird mortality. Compressed dried air (7% relative humidity (rH), 17% oxygen) was delivered to chicks in the chamber via polyethylene tubes. It was necessary to provide low rH-air to the chick chamber in order to hold the chamber at rH below 75%. The concentration of oxygen and carbon dioxide in air exiting each bird's chamber was monitored every 15-25 minutes using Ametek oxygen (accuracy±0.2%) and carbon dioxide (accuracy±0.3%) analyzers, respectively.
Apart from body weight and body temperature at hatching (day 0; BW0, BT0), ascites score (AS) and hematocrit (packed cell volume; HCT) of chicks were determined at day 14. Blood (2 ml) was taken from the birds via venipuncture after which they were euthanized using CO2 and necropsies were performed.
Hearts were weighed whole and then dissected for determination of ascites heart ratio. Heart sections were taken and fixed in 10% buffered neutral formalin for histopathologic examinantion. The results of heart dissection and histopathological analysis were summarized in the ascites score.

[3] = fed: diet supplemented with carnitine at 200 ppm
[4] = injection of carnitine versus not injected

Question: Which “BW 21 (body weight, main effect mean)” value ([1]; 150 μg carnitine in-ovo injected on day 18 of incubation, 21 days post-hatch) does the source give for C[N+](C)(C)CC(O)CC(=O)[O-] (stereo not drawn) [carnitine, 3-hydroxy-4-N-trimethylaminobutyric acid] here?
Answer: 719.9 g

Question: And the “BW 49 (body weight, main effect mean)” value ([1]; 150 μg carnitine in-ovo injected on day 18 of incubation, 49 days post-hatch)?
Answer: 2940.7 g

Question: And the “BW 70 (body weight, main effect mean)” value ([1]; 150 μg carnitine in-ovo injected on day 18 of incubation, 70 days post-hatch)?
Answer: 4168.1 g

Question: And the “effect on feed conversion (in words)” value ([1]; carnitine treatment, either fed or injected)?
Answer: improved

Question: And the “FCR 0-49 (feed conversion ratio)” value [1, 3]?
Answer: 1.817 grams of feed per gram of gain

Question: What about the “FCR 0-70 (feed conversion ratio)” value [1, 3] of the same molecule?
Answer: 2.331 grams of feed per gram of gain

Question: And the “FCR 49-70 (feed conversion ratio)” value [1, 3]?
Answer: 3.535 grams of feed per gram of gain

Question: What about the “FCR 0-49 (feed conversion ratio)” value ([1]; in-ovo injected day 18) of the same molecule?
Answer: 1.839 grams of feed per gram of gain

Question: And the “FCR 0-70 (feed conversion ratio)” value ([1]; in-ovo injected day 18)?
Answer: 2.369 grams of feed per gram of gain

Question: What about the “FCR 49-70 (feed conversion ratio)” value ([1]; in-ovo injected day 18) of the same molecule?
Answer: 3.648 grams of feed per gram of gain

Question: And the “WG 0-21 (weight gain, main effect mean)” value ([1]; in-ovo injected day 18, period 0-21 days post-hatch)?
Answer: 681.7 g

Question: What about the “M 0-70 (mortality, main effect mean)” value ([1]; in-ovo injected day 18, period 0 to 70 days post-hatch) of the same molecule?
Answer: 21.92%

Question: What about the “WG 21-49 (weight gain, main effect mean)” value ([1]; in-ovo injected day 18, period 21-49 days post-hatch) of the same molecule?
Answer: 2220.8 g

Question: And the “M 21-49 (mortality, main effect mean)” value ([1]; in-ovo injected day 18, period 21 to 49 days post-hatch)?
Answer: 4.66%

Question: What about the “WG 49-70 (weight gain, main effect mean)” value ([1]; in-ovo injected day 18, period 49-70 days post-hatch) of the same molecule?
Answer: 1227.4 g

Question: And the “M 49-70 (mortality, main effect mean)” value ([1]; in-ovo injected day 18, period 49 to 70 days post-hatch)?
Answer: 14.33%

Question: And the “weight per 100 chicks started” value ([1]; in-ovo injected eggs, end of the 70 days period post-hatch)?
Answer: 32.54 kg

Question: What about the “mortality rate, cumulative” value ([1]; in-ovo injection, highest age) of the same molecule?
Answer: ~20%

Question: And the “HCT (hematocrit, packed cell volume)” value ([2]; fed: L-carnitine at 200 ppm (coated on silica particles) via the feed)?
Answer: 30.25 Percent packed cells

Question: What about the “AS (ascites score)” value ([2]; fed: L-carnitine at 200 ppm (coated on silica particles) via the feed, scale from 0-3) of the same molecule?
Answer: 0.303

Question: And the “BT 0 (body temperature at hatching)” value ([2]; in-ovo injected day 18, day 0)?
Answer: 101.73 ° F.

Question: What about the “BW 0 (body weight at hatching)” value ([2]; in-ovo injected day 18, day 0) of the same molecule?
Answer: 38.82 g

Question: What about the “HCT (hematocrit, packed cell volume)” value ([2]; in-ovo injected day 18) of the same molecule?
Answer: 30.04 Percent packed cells

Question: What about the “AS (ascites score)” value ([2]; in-ovo injected day 18, scale from 0-3 (no, slight, moderate, severe ascites lesions)) of the same molecule?
Answer: 0.277

Question: What about the “effect on ascites score (in words)” value [2, 4] of the same molecule?
Answer: decreased

Question: What about the “effect on hematocrit (in words)” value [2, 4] of the same molecule?
Answer: decreased

Question: And the “increase of body weight at hatching” value ([2]; single injection of carnitine into incubating eggs, versus control)?
Answer: 0.5 g
